From patent US20250090513A1, “DOSING REGIMEN OF HIV CAPSID INHIBITOR” (Gilead Sciences, Inc., priority 2023, published 2025)

Tested on: HIV-1
Experiment: Trough LEN concentration associated with antiviral activity (inhibitory quotient-4)
Conditions: IQ4 threshold / efficacy target
Source text: Lenacapavir (LEN) is currently approved for the treatment of multidrug-resistant HIV-1 infection in combination with other antiretrovirals for heavily treatment-experienced (HTE) individuals. […] Given the importance of oral loading doses in achieving and maintaining concentrations >IQ4, options to make up for missed oral loading doses were considered. A population-pharmacokinetic (PopPK) model was utilized to simulate various dosing scenarios to guide missed oral loading-dose recommendations for the HTE population.

CC(C)(C#Cc1ccc(-c2ccc(Cl)c3c(NS(C)(=O)=O)nn(CC(F)(F)F)c23)c([C@H](Cc2cc(F)cc(F)c2)NC(=O)Cn2nc(C(F)(F)F)c3c2C(F)(F)[C@@H]2C[C@H]32)n1)S(C)(=O)=O [LEN, N-((S)-1-(3-(4-chloro-3-(methylsulfonamido)-1-(2,2,2-trifluoroethyl)-1H-indazol-7-yl)-6-(3-methyl-3-(methylsulfonyl)but-1-yn-1-yl)pyridin-2-yl)-2-(3,5-difluorophenyl)ethyl)-2-((3bS,4aR)-5,5-difluoro-3-(trifluoromethyl)-3b,4,4a,5-tetrahydro-1H-cyclopropa [3,4]cyclopenta [1,2-c]pyrazol-1-yl) acetamide]
mean trough LEN concentration associated with high antiviral activity (inhibitory quotient-4 [IQ4]): 15.5 ng/mL
